Data: patent US9290464B2 (priority 2010, dated 2016)

What was measured:
MPTP-induced mouse [1] = experiment: Concentration of dopamine in striatum of MPTP-induced mouse (HPLC); type: in vivo, C57BL/6 mice; conditions: 1 mg/kg oral once a day, FIG. 4
Experimental: 7 days after the compounds described above are respectively administered to the three groups, the mice in each group were sacrificed by cervical dislocation and brain tissues were immediately taken out of the mice. Striatum was collected from the brain tissue, 0.5 ml of a HPLC assay diluent (0.1 M HClO4, 0.1 mM EDTA) was added to the striatum, and a tissue homogenate was then prepared using an ultrasonic processor. The homogenate was centrifuged at 12,000 rpm for 15 minutes, and the supernatant was filtered with a nitrocellulose filter (0.2 um, Millipore). For HPLC analysis, HR-80 column (80 mm×4.6 mm, particle size: 3 μm ESA, USA) was used, the flow rate of a mobile phase (0.07 M monobasic sodium phosphate, 1 mM sodium octasulfonic acid, 0.1 uM EDTA, 5% acetonitrile, pH 3.2) was maintained at 0.7 ml/min, and the electrode potential of an electrochemical detector (Coulochem III, ESA, USA) was at E1=−100 mV, E2=350 mV.

caspase 3 = experiment: Activity of caspase 3/7 (Apo-ONE) in MPP+-treated cells; type: cell-based, human; conditions: 2 mM MPP+, 24 hours; CBI 1, 5, 10 and 50 nM, rasagiline 50 nM; FIG. 18
Experimental: SH-SY5Y cells were incubated in a 96-well plate at a concentration of 5×10^5 cells/well under the same conditions as described above, the cells were treated with 2 mM of MPP^+ and CBI (1, 5, 10 and 50 nM) or rasagiline (50 nM), and the resulting cells were incubated for 24 hours. Subsequently, 100 μl of Apo-ONE caspase 3/7 reagent (Promega, G7790) was added thereto and mixed therewith, and the resultant was further incubated for 4 hours. After the incubation was terminated, fluorescence was measured at an excitation wavelength of 495 nm and an emission wavelength of 521 nm by using a fluorescence plate reader (GeminiXPS, Molecular Devices).

[2] = tested on: MAO-B-deficient human neuroblastoma SH-SY5Y cells; experiment: Reactive oxygen species (DCF-DA staining) in MPP+-treated cells; type: cell-based; conditions: 2 mM MPP+, 50 nM, 24 hours; FIGS. 19 and 20
Experimental: In this embodiment, MAO-B-deficient human neuroblastoma SH-SY5Y cells (Korean Cell Line Bank) were used. The cells were cultured in a DMEM medium at 37° C. with 5% of CO2 for 24 hours. The cultured cells were divided into three groups, 2 mM of MPP^+ was added to each group, one of the three groups was treated with 50 nM of CBI, one of the other two groups was treated with 50 nM of rasagiline, and the three groups were further incubated with 5% of CO2 at 37° C. for 24 hours. The group with only MPP^+ added thereto was incubated under the same conditions as described above. Subsequently, the cells were stained with 2,7-dichlorofluorescein diacetate (DCF-DA), which is a fluorescence dye capable of detecting reactive oxygen species, and then observed using a confocal microscope (Nikon Co., Japan).

MPTP-induced mouse [3] = experiment: Number of neurites and spines per neuron in MPTP-induced mouse (confocal microscopy); type: in vivo, C57BL/6 mice; conditions: 1 mg/kg oral once a day for 10 days after MPTP
Experimental: To observe whether or not the number of neurites and spines per neuron in the tissues was increased, a coronal slice with a thickness of 200 um containing striatum or substantia nigra was prepared using a vibratome. Each group of mice was sacrificed, and the brain was taken out of each group and then placed in a cold, highly-concentrated sucrose dissection buffer bubbled with carbogen (5% CO2 and 95% O2) (87 mM NaCl, 2.5 mM KCl, 1.25 mM NaH2PO4, 25 mM NaHCO3, 1 mM CaCl2, 3 mM MgCl2, 10 mM dextrose, and 75 mM sucrose). While the vibratome was performed, a slicing chamber was filled with the uniformly carbogenated sucrose dissection buffer. After the slicing process was terminated, all the slices were washed with PBS, and fixed with 4% paraformaldehyde in a PBS solution. The fixed brain slices were placed on a 1.5% agarose (in PBS) block. Images thereof were obtained using a confocal microscope (ZEISS LSM 510 META) by using Zeiss LSM image browser software (Carl Zeiss Microimaging, Germany, version 4.0 SP2).

**Q.** Which “restoration of the concentration of dopamine in striatum compared with normal mice” value (MPTP-induced mouse [1]) does the source give for `C#CCN[C@@H]1CCc2ccccc21` [rasagiline, R(+)-N-propargyl-1-aminoindan, reference compound] here?
**A.** about 40%

**Q.** And the “activity of caspase 3” value (caspase 3)?
**A.** reduced

**Q.** What about the reactive oxygen species [2] of the same molecule?
**A.** significantly decreased

**Q.** What about the number of neurites (MPTP-induced mouse [3]; FIG. 23) of the same molecule?
**A.** did not exhibit statistical significance

**Q.** And the number of spines (MPTP-induced mouse [3]; FIG. 24)?
**A.** an increase in the number of spines was observed
